Laboratory results reported in US20240376097A1, “BCL-2 Inhibitor” (BeiGene Ltd., priority 2020, published 2024).

Experiments:
[1] = system: BCL-2 G101V knock-in cell line H96 (derive from RS4;11); test: Bcl 2-G101V Knock-In RS4;11 Cell Proliferation Assay; format: cell-based; details: Homo sapiens, RS4-11, 48 h, RS4;11 Bcl-2 G101V knock-in clone H96, 48 hrs, CellTiter-GLO, read-out: Cellular proliferation assay (IC50, nM) RS4
How it was run: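 CellTiter-Glo luminescence after 48 h, 37 °C compound treatment (10 concentrations, maximum 1 μM or 10 μM) gave mean IC50 values. Cells were 50,000 per well of H96, a BCL2-G101V knock-in single clone derived from RS4;11 by Cas9 editing.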

[2] = system: RS4;11 (BCL-2 dependent acute lymphoblastic leukemia cell line); test: RS4;11 Cell Proliferation Assay; format: cell-based; details: Homo sapiens, RS4;11 cells, read-out: Cellular proliferation assay (IC50, nM) RS4
How it was run: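 Viability measured via CellTiter-Glo luminescence after a 48 h, 37 °C exposure to compounds (10 points, highest 1 μM). Seeding was 50,000 RS4;11 cells per well in 10% FBS RPMI-1640; IC50 given as mean.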

[3] = system: recombinant human Bcl-2-G101V protein; test: Bcl-2-G101V TR-FRET Assay; format: binding; details: for Ratio of Bcl-2 G101V/WT: ratio of biochemical IC50 Bcl-2 G101V / Bcl-2 WT; for ratio of IC50 of Bcl-2 G101V/Bcl-2 wt, compared with Example F132b in WO2019210828 and ABT-199 (venetoclax): comparison in words
How it was run: (§1)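 Displacement of ligand from recombinant human Bcl-2-G101V measured by TR-FRET (ex337 nm, em490/520 nm), inhibition derived from the 490/520 ratio across compound titrations. IC50 from four-parameter logistic fit.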

[4] = molecular target: recombinant human Bcl-2-G101V protein (Homo sapiens (Human), UniProt P10415, G101V); test: Bcl-2-G101V TR-FRET Assay; format: binding; details: Bcl-2 G101V mutant, TR-FRET; read-out: Biochemical assay (IC50, nM) Bcl-2 G101V
How it was run: as §1

[5] = Metabolic Stability Study, liver microsome incubation (mouse); format: in vitro ADME; details: mouse liver microsomes 0.5 mg/mL, 1 μM compound, NADPH; for half-life at 1 μM: NA^# = very stable, beyond the detection limits, read-out: T1/2 (min) mouse; for microsomal CLint at 1 μM: read-out: CLint (μL × min^−1 × mg^−1) mouse
Description: Biological Example: Metabolic Stability Study
The metabolic stability of some compounds was evaluated by using the liver microsome incubation system in vitro. Briefly, the test compounds at 1 μM, were incubated with 0.5 mg/mL liver microsomes from different species (human, dog, rat and mouse) with an NADPH regenerating system at 37° C. Samples were quenched at three time points (0, 30, 60 min) with organic solvent containing internal standards, and the supernatant was analyzed for parent loss via LC-MS/MS. Midazolam was used as the positive control to validate the incubation system.
where Cprotein is the microsomal protein concentration in the incubation system.
The value of CLint and T1/2 of Example F132b in WO2019210818 and representative compounds of the disclosure were determined, and the results are shown in Table 5.

SMILES	IC50 [1] [nM]	IC50 [2] [nM]	Ratio of Bcl-2 G101V/WT [3]	IC50 [4] [nM]	half-life at 1 μM [5] [min]	microsomal CLint at 1 μM [5] [µL/min/mg]	ratio of IC50 of Bcl-2 G101V/Bcl-2 wt, compared with Example F132b in WO2019210828 and ABT-199 (venetoclax) [3]
CC(C)c1ccccc1[C@@H]1CN(Cc2ccc(F)c(F)c2)CCN1C1CC2(CCN(c3ccc(C(=O)NS(=O)(=O)c4ccc(NC[C@H]5CC[C@](C)(O)CC5)c([N+](=O)[O-])c4)c(Oc4cnc5[nH]ccc5c4)c3)CC2)C1 (single isomer, unassigned) [Example 52a, 2-((1H-pyrrolo[2,3-b]pyridin-5-yl)oxy)-4-(2-((R or S)-4-(3,4-difluorobenzyl)-2-(2-isopropylphenyl)piperazin-1-yl)-7-azaspiro[3.5]nonan-7-yl)-N-((4-((((1r,4r)-4-hydroxy-4-methylcyclohexyl)methyl)amino)-3-nitrophenyl)sulfonyl)benzamide]	1.67	0.25	4.2	0.68			
[2H]C([2H])([2H])Oc1ccc(CN2CCN(C3CC4(CCN(c5ccc(C(=O)NS(=O)(=O)c6ccc(NC[C@H]7CC[C@](C)(O)CC7)c([N+](=O)[O-])c6)c(Oc6cnc7[nH]cc(F)c7c6)c5)CC4)C3)[C@H](c3ccccc3C(C)C)C2)cc1OC([2H])([2H])[2H] [Example 198, 4-(2-((R)-4-(3,4-bis(methoxy-d3)benzyl)-2-(2-isopropylphenyl)piperazin-1-yl)-7-azaspiro[3.5]nonan-7-yl)-2-((3-fluoro-1H-pyrrolo[2,3-b]pyridin-5-yl)oxy)-N-((4-((((1r,4r)-4-hydroxy-4-methylcyclohexyl)methyl)amino)-3-nitrophenyl)sulfonyl)benzamide]	0.27	0.12	2.4	0.17	222	6.3	
COc1ccc(CN2CCN(C3CC4(CCN(c5ccc(C(=O)NS(=O)(=O)c6ccc(NC[C@H]7CC[C@](C)(O)CC7)c([N+](=O)[O-])c6)c(Oc6cnc7[nH]ccc7c6)c5)CC4)C3)C(c3ccccc3C(C)C)C2)c(OC)c1 (some centres unmarked) [Example 48]	1.9	0.43	4.6	0.33	323	4.3	
COc1ccc(CN2CCN(C3CC4(CCN(c5ccc(C(=O)NS(=O)(=O)c6ccc(NCC7(F)CCOCC7)c([N+](=O)[O-])c6)c(Oc6cnc7[nH]ccc7c6)c5)CC4)C3)[C@H](c3ccccc3C(C)C)C2)cc1 (single isomer, unassigned) [Example 32, (R or S)-2-((1H-pyrrolo[2,3-b]pyridin-5-yl)oxy)-N-((4-(((4-fluorotetrahydro-2H-pyran-4-yl)methyl)amino)-3-nitrophenyl)sulfonyl)-4-(2-(2-(2-isopropylphenyl)-4-(4-methoxybenzyl)piperazin-1-yl)-7-azaspiro[3.5]nonan-7-yl)benzamide]	0.96	0.18	2.9	0.28	202	6.8	
CC(C)c1ccccc1C1CN(Cc2ccccc2F)CCN1C1CC2(CCN(c3ccc(C(=O)NS(=O)(=O)c4ccc(NC[C@H]5CC[C@](C)(O)CC5)c([N+](=O)[O-])c4)c(Oc4cnc5[nH]ccc5c4)c3)CC2)C1 (some centres unmarked) [Example 46, 2-((1H-pyrrolo[2,3-b]pyridin-5-yl)oxy)-4-(2-(4-(2-fluorobenzyl)-2-(2-isopropylphenyl)piperazin-1-yl)-7-azaspiro[3.5]nonan-7-yl)-N-((4-((((1r,4r)-4-hydroxy-4-methylcyclohexyl)methyl)amino)-3-nitrophenyl)sulfonyl)benzamide]	10.2	0.91	7.9	2.7	131	10.5	
COc1cc(CN2CCN(C3CC4(CCN(c5ccc(C(=O)NS(=O)(=O)c6ccc(NC[C@H]7CC[C@](C)(O)CC7)c([N+](=O)[O-])c6)c(Oc6cnc7[nH]cc(F)c7c6)c5)CC4)C3)[C@H](c3ccccc3C(C)C)C2)cc2ccoc12 [Example 281, 2-((3-fluoro-1H-pyrrolo[2,3-b]pyridin-5-yl)oxy)-N-((4-((((1r,4r)-4-hydroxy-4-methylcyclohexyl)methyl)amino)-3-nitrophenyl)sulfonyl)-4-(2-((R)-2-(2-isopropylphenyl)-4-((7-methoxybenzofuran-5-yl)methyl)piperazin-1-yl)-7-azaspiro[3.5]nonan-7-yl)benzamide]	0.31	0.13	2.3	0.99	564	2.5	
COc1cc(CN2CCN(C3CC4(CCN(c5ccc(C(=O)NS(=O)(=O)c6ccc(NC[C@H]7CC[C@](C)(O)CC7)c([N+](=O)[O-])c6)c(Oc6cnc7[nH]ccc7c6)c5)CC4)C3)[C@H](c3ccccc3C(C)C)C2)ccc1C1CC1 [Example 257]	0.53	0.15	2.5	0.99	254	5.5	
COc1ccc(CN2CCN(C3CC4(CCN(c5ccc(C(=O)NS(=O)(=O)c6ccc(NC[C@H]7CC[C@](C)(O)CC7)c([N+](=O)[O-])c6)c(Oc6cnc7[nH]ccc7c6)c5)CC4)C3)[C@H](c3ccccc3C(C)C)C2)cc1 [Example 19a, 2-((1H-pyrrolo[2,3-b]pyridin-5-yl)oxy)-N-((4-((((1r,4r)-4-hydroxy-4-methylcyclohexyl)methyl)amino)-3-nitrophenyl)sulfonyl)-4-(2-((R)-2-(2-isopropylphenyl)-4-(4-methoxybenzyl)piperazin-1-yl)-7-azaspiro[3.5]nonan-7-yl)benzamide]	0.57	0.15	3.2	0.18	346	4	much lower
CC(C)c1ccccc1C1CN(Cc2ccc(F)c(F)c2)CCN1C1CC2(CCN(c3ccc(C(=O)NS(=O)(=O)c4ccc(NC[C@H]5CC[C@](C)(O)CC5)c([N+](=O)[O-])c4)c(Oc4cnc5[nH]ccc5c4)c3)CC2)C1 (some centres unmarked) [Example 52, 2-((1H-pyrrolo[2,3-b]pyridin-5-yl)oxy)-4-(2-(4-(3,4-difluorobenzyl)-2-(2-isopropylphenyl)piperazin-1-yl)-7-azaspiro[3.5]nonan-7-yl)-N-((4-((((1r,4r)-4-hydroxy-4-methylcyclohexyl)methyl)amino)-3-nitrophenyl)sulfonyl)benzamide]	2.7	0.36	3.0	0.73		< 1	
COc1cc(CN2CCN(C3CC4(C3)CN(c3ccc(C(=O)NS(=O)(=O)c5ccc(NC[C@H]6CC[C@](C)(O)CC6)c([N+](=O)[O-])c5)c(Oc5cnc6[nH]ccc6c5)c3)C4)[C@H](c3ccccc3C(C)C)C2)ccc1C1CC1 [Example 233, 2-((1H-pyrrolo[2,3-b]pyridin-5-yl)oxy)-4-(6-((R)-4-(4-cyclopropyl-3-methoxybenzyl)-2-(2-isopropylphenyl)piperazin-1-yl)-2-azaspiro[3.3]heptan-2-yl)-N-((4-((((1r,4r)-4-hydroxy-4-methylcyclohexyl)methyl)amino)-3-nitrophenyl)sulfonyl)benzamide]	0.25	0.13	2.2	0.95	253	5.5	much lower
COc1ccc(CN2CCN(C3CC4(CCN(c5ccc(C(=O)NS(=O)(=O)c6ccc(NC[C@H]7CC[C@](C)(O)CC7)c([N+](=O)[O-])c6)c(Oc6cnc7[nH]ccc7c6)c5)CC4)C3)C(c3ccccc3C(C)C)C2)cn1 (some centres unmarked) [Example 72, 2-((1H-pyrrolo[2,3-b]pyridin-5-yl)oxy)-N-((4-((((1r,4r)-4-hydroxy-4-methylcyclohexyl)methyl)amino)-3-nitrophenyl)sulfonyl)-4-(2-(2-(2-isopropylphenyl)-4-((6-methoxypyridin-3-yl)methyl)piperazin-1-yl)-7-azaspiro[3.5]nonan-7-yl)benzamide]	1.7	0.45	4	0.2	159	8.7	
